From US6673549B1, “Genes expressed in C3A liver cell cultures treated with steroids” (Incyte Corporation, priority 2000, dated 2004)
“And” between values parts separate entries of the source, which are not always exact repeats. Identical values can stand only once.

Test system: human C3A liver cells
Experiment: Microarray differential gene expression in human C3A liver cell cultures treated with steroids
Assay type: cell-based
Excerpt: Incyte clones represent template sequences derived from the LWESEQ GOLD assembled human sequence database (Incyte Genomics). In cases where more than one clone was available for a particular template, the 5′-most clone in the template was used on the microarray. The HUMAN GENOME GEM series 1-4 microarrays (Incyte Genomics) contain 28,626 array elements which represent 10,068 annotated clusters and 18,558 unannotated clusters. For the UNIGEM series microarrays (Incyte Genomics), Incyte clones were mapped to non-redundant Unigene clusters (Unigene database (build 46), NCBI; Shuler (1997) J Mol Med 75:694-698), and the 5′ clone with the strongest BLAST alignment (at least 90% identity and 100 bp overlap) was chosen, verified, and used in the construction of the microarray. The UNIGEM V microarray (Incyte Genomics) contains 7075 array elements which represent 4610 annotated genes and 2,184 unannotated clusters.
To construct microarrays, cDNAs were amplified from bacterial cells using primers complementary to vector sequences flanking the cDNA insert. […] Amplified cDNAs were then purified using […]-400 columns (APB). Purified cDNAs were immobilized on polymer-coated glass slides. Glass microscope slides (Corning, Corning N.Y.) were cleaned by ultrasound in 0.1% SDS and acetone, with extensive distilled water washes between and after treatments. Glass slides were etched in 4% hydrofluoric acid (VWR Scientific Products, West Chester Pa.), washed thoroughly in distilled water, and coated with 0.05% aminopropyl silane (Sigma Aldrich) in 95% ethanol. Coated slides were cured in a 110° C. oven. cDNAs were applied to the coated glass substrate using a procedure described in U.S. Pat. No. 5,807,522. One microliter of the cDNA at an average concentration of 100 ng/μl was loaded into the open capillary printing element by a high-speed robotic apparatus which then deposited about 5 nl of cDNA per slide.
Microarrays were UV-crosslinked using a […] UV-crosslinker (Stratagene), and then washed at room temperature once in 0.2% SDS and three times in distilled water. Non-specific binding sites were blocked by incubation of microarrays in 0.2% casein in phosphate buffered saline (Tropix, Bedford Mich.) for 30 minutes at 60° C. followed by washes in 0.2% SDS and distilled water as before.
In all cases, mRNA from untreated early confluent C3A cells were prepared in parallel as described below.
Cells were harvested and lysed in 1 ml of TRIZOL reagent (5×10^6 cells/ml; Life Technologies). Lysates were vortexed thoroughly, incubated at room temperature for 2-3 minutes, and extracted with 0.5 ml chloroform. The extract was mixed, incubated at room temperature for 5 minutes, and centrifuged at 15,000 rpm for 15 minutes at 4° C. The aqueous layer was collected, and an equal volume of isopropanol was added. Samples were mixed, incubated at room temperature for 10 minutes, and centrifuged at 15,000 rpm for 20 minutes at 4° C. The supernatant was removed, and the RNA pellet was washed with 1 ml of 70% ethanol, centrifuged at 15,000 rpm at 4° C., and resuspended in RNAse-free water. The concentration of the RNA was determined by measuring the optical density at 260 nm.
Poly(A) RNA was prepared using an OLIGOTEX mRNA kit (Qiagen) with the following modifications: OLIGOTEX beads were washed in tubes instead of on spin columns, resuspended in elution buffer, and then loaded onto spin columns to recover mRNA. To obtain maximum yield, the mRNA was eluted twice.
Each poly(A) RNA sample was reverse transcribed using MMLV reverse-transcriptase, 0.05 pg/μl oligo-d(T) primer (21mer), 1× first strand buffer, 0.03 units/ul RNAse inhibitor, 500 uM dATP, 500 uM dGTP, 500 uM dTTP, 40 uM dCTP, and 40 uM either dCTP-Cy3 or dCTP-Cy5 (APB).

## CCCC1O[C@@H]2C[C@H]3[C@@H]4CCC5=CC(=O)C=C[C@]5(C)[C@H]4[C@@H](O)C[C@]3(C)[C@]2(C(=O)CO)O1 (some centres unmarked) [budesonide]
Clone ID 380006
  Ave DE [log2] (C3A treated with steroid): −1.05 log2
Clone ID 517374
  Ave DE [log2] (C3A treated with steroid): 1.04 log2
Clone ID 615776
  Ave DE [log2] (C3A treated with steroid): 1.06 log2
Clone ID 622565
  Ave DE [log2] (C3A treated with steroid): 1.20 log2
Clone ID 654246
  Ave DE [log2] (C3A treated with steroid): −1.08 log2
Clone ID 686993
  Ave DE [log2] (C3A treated with steroid): 0.51 log2
Clone ID 689296
  Ave DE [log2] (C3A treated with steroid): 1.08 log2 and 1.05 log2
Clone ID 1401312
  Ave DE [log2] (C3A treated with steroid): −1.09 log2
Clone ID 1604437
  Ave DE [log2] (C3A treated with steroid): 1.18 log2
Clone ID 1611629
  Ave DE [log2] (C3A treated with steroid): 1.19 log2
Clone ID 1662870
  Ave DE [log2] (C3A treated with steroid): −0.93 log2
Clone ID 1679595
  Ave DE [log2] (C3A treated with steroid): 1.10 log2
Clone ID 1697719
  Ave DE [log2] (C3A treated with steroid): −0.81 log2
Clone ID 1716458
  Ave DE [log2] (C3A treated with steroid): 1.24 log2
Clone ID 1798594
  Ave DE [log2] (C3A treated with steroid): 0.69 log2
Clone ID 1823946
  Ave DE [log2] (C3A treated with steroid): −1.10 log2
Clone ID 1876829
  Ave DE [log2] (C3A treated with steroid): −1.13 log2
Clone ID 1930847
  Ave DE [log2] (C3A treated with steroid): −1.09 log2
Clone ID 1973123
  Ave DE [log2] (C3A treated with steroid): −1.23 log2
Clone ID 2057513
  Ave DE [log2] (C3A treated with steroid): 1.13 log2
Clone ID 2078880
  Ave DE [log2] (C3A treated with steroid): −0.80 log2
Clone ID 2170820
  Ave DE [log2] (C3A treated with steroid): 1.17 log2
Clone ID 2173973
  Ave DE [log2] (C3A treated with steroid): 1.08 log2
Clone ID 2189061
  Ave DE [log2] (C3A treated with steroid): 0.15 log2
Clone ID 2222155
  Ave DE [log2] (C3A treated with steroid): 0.58 log2
Clone ID 2227273
  Ave DE [log2] (C3A treated with steroid): 1.05 log2
Clone ID 2287724
  Ave DE [log2] (C3A treated with steroid): −1.06 log2
Clone ID 2343836
  Ave DE [log2] (C3A treated with steroid): 0.93 log2
Clone ID 2404746
  Ave DE [log2] (C3A treated with steroid): 0.42 log2
Clone ID 2482388
  Ave DE [log2] (C3A treated with steroid): 1.19 log2
Clone ID 2660756
  Ave DE [log2] (C3A treated with steroid): 1.13 log2
Clone ID 2687356
  Ave DE [log2] (C3A treated with steroid): 1.26 log2
Clone ID 2703282
  Ave DE [log2] (C3A treated with steroid): −1.01 log2
Clone ID 3139631
  Ave DE [log2] (C3A treated with steroid): −0.97 log2
Clone ID 3229449
  Ave DE [log2] (C3A treated with steroid): 0.39 log2
Clone ID 3408804
  Ave DE [log2] (C3A treated with steroid): −1.24 log2
Clone ID 3426776
  Ave DE [log2] (C3A treated with steroid): 0.61 log2
Clone ID 3449615
  Ave DE [log2] (C3A treated with steroid): 1.05 log2
Clone ID 3497137
  Ave DE [log2] (C3A treated with steroid): −0.94 log2
Clone ID 3687607
  Ave DE [log2] (C3A treated with steroid): 1.17 log2
Clone ID 3721985
  Ave DE [log2] (C3A treated with steroid): −1.10 log2
Clone ID 3770530
  Ave DE [log2] (C3A treated with steroid): −0.98 log2
Clone ID 3973687
  Ave DE [log2] (C3A treated with steroid): 1.31 log2
Clone ID 4089291
  Ave DE [log2] (C3A treated with steroid): −1.00 log2
Clone ID 4215034
  Ave DE [log2] (C3A treated with steroid): 1.20 log2
Clone ID 4252872
  Ave DE [log2] (C3A treated with steroid): 1.24 log2
Clone ID 4403805
  Ave DE [log2] (C3A treated with steroid): 1.12 log2
Clone ID 4630674
  Ave DE [log2] (C3A treated with steroid): 0.97 log2
Clone ID 4855265
  Ave DE [log2] (C3A treated with steroid): 1.14 log2
Clone ID 4863677
  Ave DE [log2] (C3A treated with steroid): 1.11 log2
Clone ID 5038177
  Ave DE [log2] (C3A treated with steroid): 0.57 log2
Clone ID 5102951
  Ave DE [log2] (C3A treated with steroid): 0.84 log2
Clone ID 5326983
  Ave DE [log2] (C3A treated with steroid): 0.94 log2
